Test results from PMC9060465 (Proceedings of the National Academy of Sciences of the …, 2022).

Experiments:
GLP-1R [1] = biological target: T1, GLP-1R (Homo sapiens, UniProt P43220); assay: Ligand-induced GLP-1R internalization, SNAP-GLP-1R HEK293 cells; format: cell-based
Target sequence in this assay (P43220 24-463): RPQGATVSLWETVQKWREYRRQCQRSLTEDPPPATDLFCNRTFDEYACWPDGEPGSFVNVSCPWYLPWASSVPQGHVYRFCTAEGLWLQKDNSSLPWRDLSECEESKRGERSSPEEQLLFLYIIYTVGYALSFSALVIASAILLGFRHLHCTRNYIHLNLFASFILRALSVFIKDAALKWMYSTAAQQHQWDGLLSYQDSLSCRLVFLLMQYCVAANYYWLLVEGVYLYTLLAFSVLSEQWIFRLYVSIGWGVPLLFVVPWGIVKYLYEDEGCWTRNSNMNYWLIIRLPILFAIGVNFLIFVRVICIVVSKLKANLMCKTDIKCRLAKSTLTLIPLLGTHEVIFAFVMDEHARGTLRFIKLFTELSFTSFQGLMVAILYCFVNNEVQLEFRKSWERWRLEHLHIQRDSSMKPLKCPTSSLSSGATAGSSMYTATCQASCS

GLP-1R [2] = biological target: T1, GLP-1R; assay: GLP-1R Gαs [35S]GTPγS binding, GLP-1R-expressing membranes; format: biochemical; parameters: expressed in transfected cells; host or cells: HEK293; conditions: efficacy (% Top), normalized to GLP-1(7-36); (SEM)
Description: (§1) Fig. 4. […] (B) Ligand-induced GTPγS binding of Gαs was performed using the GIPR-expressing membranes. […] (C) Agonist-stimulated cAMP production was measured in human GIPR expressing HEK293 cells. […] (E) Ligand-induced GTPγS binding of Gαs was performed using the GLP-1R-expressing membranes. […] (F) Agonist-stimulated cAMP production was measured in human GLP-1R-expressing HEK293 cells. […] Data presented are representative of n ≥ 3 independent experiments. Summarized data are shown in SI Appendix, Table 2. log M; log Molar.
(§2) We note that the albumin-binding propensity of fatty acid-modified peptides can confound a pharmacological comparison of molecules, given the common use of albumin and serum as nonspecific blocking agents in biological assays. Therefore, to obviate this, entirely albumin-free assays supplemented with bovine casein or bacitracin were used to prevent nonspecific binding ([10]). […]
(§3) Middle Panel: The affinity (Ki) of ligands for the GLP-1R was […]
(§4) Functional potency (EC50) and efficacy (% Top) of ligands to induce Gα s-GTPγS binding and cAMP accumulation in HEK293 cells expressing GLP-1R were determined. The equilibrium affinity (KD) of ligands for the immobilized ectodomain of the GLP-1R were quantified by surface plasmon resonance. […]
(§5) SPR data were analyzed using T200 evaluation software (Cytiva). All data are presented as geometric means with SEM and n values according to established practices. ND, not determined. NA, not applicable.
Target sequence in this assay (P43220 24-463): as above

GLP-1R [3] = biological target: T1, GLP-1R; assay: GLP-1R low density cAMP accumulation in HEK293 cells; format: cell-based; parameters: expressed in transfected cells; host or cells: HEK293; conditions: efficacy (% Top), normalized to GLP-1(7-36); (SEM)
Description: as §1, §2, §3, §4, §5
Target sequence in this assay (P43220 24-463): as above

GLP-1R [4] = biological target: T1, GLP-1R; assay: GRK2 recruitment to the GLP-1R, NanoBRET; format: cell-based; parameters: expressed in transfected cells; host or cells: freestyle HEK cells; conditions: efficacy (% Top), relative to maximal GLP-1; (SEM)
Description: After 48 h, transfected cells were incubated in phosphate-buffered saline (PBS) containing 0.1% (wt/vol) bovine casein and varying concentrations of the ligands. […]
The potency (EC50) and efficacy (% Top) for ligands to induce GLP-1R Internalization were
determined using diffusion-enhanced resonance energy transfer.
relative efficacy for NanoBRET assays. SPR data were analyzed using T200 evaluation software (Cytiva). All data are presented as geometric means with SEM and n values
according to established practices. ND, not determined. NA, not applicable.
Target sequence in this assay (P43220 24-463): as above
Target sequence in this assay (P25098 whole entry partner): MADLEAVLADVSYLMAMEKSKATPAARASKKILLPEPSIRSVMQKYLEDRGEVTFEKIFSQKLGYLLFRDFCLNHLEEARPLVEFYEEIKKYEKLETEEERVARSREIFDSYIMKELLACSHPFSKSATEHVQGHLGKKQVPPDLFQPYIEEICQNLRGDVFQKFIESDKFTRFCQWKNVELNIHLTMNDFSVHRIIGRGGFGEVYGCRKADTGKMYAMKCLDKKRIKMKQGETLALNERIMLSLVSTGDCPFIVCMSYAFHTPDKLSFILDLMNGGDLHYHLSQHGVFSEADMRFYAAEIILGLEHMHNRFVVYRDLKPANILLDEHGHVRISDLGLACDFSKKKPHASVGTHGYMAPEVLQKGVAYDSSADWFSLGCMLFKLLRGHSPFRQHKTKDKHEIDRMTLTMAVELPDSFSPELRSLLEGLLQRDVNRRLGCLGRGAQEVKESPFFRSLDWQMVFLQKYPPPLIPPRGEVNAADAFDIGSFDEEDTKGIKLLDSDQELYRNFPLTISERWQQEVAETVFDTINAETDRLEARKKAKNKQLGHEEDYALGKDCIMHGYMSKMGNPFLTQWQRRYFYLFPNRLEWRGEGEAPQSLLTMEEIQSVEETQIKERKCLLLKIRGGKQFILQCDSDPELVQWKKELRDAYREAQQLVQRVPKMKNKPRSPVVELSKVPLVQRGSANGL

GLP-1R [5] = biological target: T1, GLP-1R; assay: β-arrestin 1 recruitment to the GLP-1R, NanoBRET; format: cell-based; parameters: expressed in transfected cells; conditions: efficacy (% Top), relative efficacy to GLP-1; (SEM)
Description: Functional potency (EC50) […]
and efficacy (% Top) of ligands to induce Gα s -GTPγS binding and cAMP accumulation in HEK293 cells expressing GIPR were determined. The equilibrium affinity (KD) of ligands for the immobilized ectodomain of the GIPR were quantified by surface plasmon resonance. Middle Panel: The affinity (Ki) of ligands for the GLP-1R was […]
as §4
Target sequence in this assay (P43220 24-463): as the sequence (P43220 24-463) above
Target sequence in this assay (P49407 whole entry partner): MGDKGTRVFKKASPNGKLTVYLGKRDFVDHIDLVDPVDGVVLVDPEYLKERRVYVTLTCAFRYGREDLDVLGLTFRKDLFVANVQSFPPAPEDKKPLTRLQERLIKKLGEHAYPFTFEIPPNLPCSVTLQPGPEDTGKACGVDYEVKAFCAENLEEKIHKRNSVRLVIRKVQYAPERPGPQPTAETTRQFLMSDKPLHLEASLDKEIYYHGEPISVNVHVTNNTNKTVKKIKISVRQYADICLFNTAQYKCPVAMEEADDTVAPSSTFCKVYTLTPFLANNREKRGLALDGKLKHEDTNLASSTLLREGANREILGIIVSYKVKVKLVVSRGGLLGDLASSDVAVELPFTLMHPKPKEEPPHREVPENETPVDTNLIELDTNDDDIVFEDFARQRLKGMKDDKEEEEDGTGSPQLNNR
recruitment to the GLP-1R were determined using the NanoBRET approach. The potency (EC50) and efficacy (% Top) for ligands to induce GLP-1R Internalization were determined using diffusion-enhanced resonance energy transfer. […]
relative efficacy for NanoBRET assays. SPR data were analyzed using T200 evaluation software (Cytiva). All data are presented as geometric means with SEM and n values according to established practices. ND, not determined. NA, not applicable.

Compound | efficacy at inducing internalization of the GLP-1R, in words (GLP-1R [1]; SNAP-tagged receptor in HEK293 cells, representative of n≥3) | GLP-1R Internalization Top (GLP-1R [1]; efficacy (% Top), percent internalization compared to maximal GLP-1, (SEM)) | GLP-1R GTPγS Recruitment Top (GLP-1R [2]) | GLP-1R Low Density cAMP Top (GLP-1R [3]) | GLP-1R GRK2 Recruitment Top (GLP-1R [4]) | GLP-1R β-Arr1 Recruitment Top (GLP-1R [5])
semaglutide [reference compound] | equally efficacious |  |  |  |  | 
CC[C@H](C)[C@H](NC(=O)[C@H](CC(C)C)NC(=O)[C@H](Cc1c[nH]c2ccccc12)NC(=O)[C@H](CCC(N)=O)NC(=O)[C@@H](NC(=O)[C@H](Cc1ccccc1)NC(=O)[C@H](C)NC(=O)[C@H](CCCCNC(=O)COCCOCCNC(=O)COCCOCCNC(=O)CC[C@H](NC(=O)CCCCCCCCCCCCCCCCCCC(=O)O)C(=O)O)NC(=O)[C@H](CCC(N)=O)NC(=O)[C@H](C)NC(=O)[C@@H](NC(=O)[C@H](CCCCN)NC(=O)[C@H](CC(=O)O)NC(=O)[C@H](CC(C)C)NC(=O)C(C)(C)NC(=O)[C@@H](NC(=O)[C@H](CO)NC(=O)[C@H](Cc1ccc(O)cc1)NC(=O)[C@H](CC(=O)O)NC(=O)[C@H](CO)NC(=O)[C@@H](NC(=O)[C@H](Cc1ccccc1)NC(=O)[C@@H](NC(=O)CNC(=O)[C@H](CCC(=O)O)NC(=O)C(C)(C)NC(=O)[C@@H](N)Cc1ccc(O)cc1)[C@@H](C)O)[C@@H](C)O)[C@@H](C)CC)[C@@H](C)CC)C(C)C)C(=O)N[C@@H](C)C(=O)NCC(=O)NCC(=O)N1CCC[C@H]1C(=O)N[C@@H](CO)C(=O)N[C@@H](CO)C(=O)NCC(=O)N[C@@H](C)C(=O)N1CCC[C@H]1C(=O)N1CCC[C@H]1C(=O)N1CCC[C@H]1C(=O)N[C@@H](CO)C(N)=O [Tzp, tirzepatide] |  | 41.6 (3.0) % | 43.9 (1.7) % | 99.5 (4.5) % | 24.7 (2.8 ) % | 7.55 (0.93) %
